Here are results for 13 compounds from PubChem BioAssay AID651650 (Sanford-Burnham Center for Chemical Genomics, 2012).

Calls of active or inactive are those of the source.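 Rule for the calls: active = mean IC50 below 20 µM in each of the two panels, so potent in both; inactive = the rest.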

The target in the test is Neuropilin-1 (Homo sapiens) (UniProt O14786). The test can be described thus: blockers of CendR peptide binding to NRP-1 – biochemical, FP and AlphaScreen panel, dose response (AID 651650). Particulars: NRP-1 b1b2 / RPARPAR peptide binding, FP or AlphaScreen. For orientation: Bead proximity is the source of the signal in Alpha formats.
Chain of Neuropilin-1 (Homo sapiens) (O14786 whole entry, looked up): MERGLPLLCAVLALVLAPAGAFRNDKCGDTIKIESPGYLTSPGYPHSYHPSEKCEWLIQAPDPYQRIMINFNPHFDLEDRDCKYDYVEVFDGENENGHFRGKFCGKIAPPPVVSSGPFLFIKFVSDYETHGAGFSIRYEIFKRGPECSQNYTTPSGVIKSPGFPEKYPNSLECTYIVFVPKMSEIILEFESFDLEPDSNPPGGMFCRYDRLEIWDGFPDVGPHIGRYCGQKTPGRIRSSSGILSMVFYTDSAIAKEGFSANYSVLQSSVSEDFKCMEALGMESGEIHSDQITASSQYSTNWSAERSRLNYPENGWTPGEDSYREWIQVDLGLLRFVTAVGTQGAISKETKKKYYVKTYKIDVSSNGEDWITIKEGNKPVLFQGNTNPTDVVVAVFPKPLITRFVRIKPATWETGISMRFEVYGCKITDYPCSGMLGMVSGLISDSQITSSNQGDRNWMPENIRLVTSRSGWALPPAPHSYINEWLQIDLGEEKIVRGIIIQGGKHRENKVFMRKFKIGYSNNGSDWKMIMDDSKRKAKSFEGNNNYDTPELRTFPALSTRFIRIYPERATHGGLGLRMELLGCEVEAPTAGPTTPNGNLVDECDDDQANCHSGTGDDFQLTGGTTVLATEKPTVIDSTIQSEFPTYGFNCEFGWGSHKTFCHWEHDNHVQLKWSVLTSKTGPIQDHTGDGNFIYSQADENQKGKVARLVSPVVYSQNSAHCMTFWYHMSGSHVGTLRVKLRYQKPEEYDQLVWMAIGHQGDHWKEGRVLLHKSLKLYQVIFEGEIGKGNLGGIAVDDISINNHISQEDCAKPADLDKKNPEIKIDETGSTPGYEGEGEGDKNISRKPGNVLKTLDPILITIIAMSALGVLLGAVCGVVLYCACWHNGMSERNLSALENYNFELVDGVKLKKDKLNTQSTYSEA
Where [1] appears, read: AlphaScreen, run 1, individual panel run IC50.
Setting [2] is: FP, run 1, individual panel run IC50.
Setting [3] is: FP, run 2, individual panel run IC50.

On to `Cc1ccc(Cn2c(C(C)Nc3nc(-c4ccc(Cl)c([N+](=O)[O-])c4)cs3)nc3cc(C(F)(F)F)ccc32)cc1` (stereo not given), for which the IC50 (in general, the concentration at which inhibition is half-maximal) runs as follows: (AlphaScreen, mean of runs) > 100 µM (inactive); under setting [1], above 100 µM; (FP, mean of runs) > 95 µM (inactive); under setting [2], above 95 µM; under setting [3], above 95 µM.
Consider `CCCCC1CCC(C(=O)NC2CCS(=O)(=O)C2)CC1` (stereo not given), for which the IC50 is > 100 µM (inactive) (AlphaScreen, mean of runs); above 100 µM under setting [1]; > 95 µM (inactive) (FP, mean of runs); above 95 µM under setting [2]; above 95 µM under setting [3].
For the compound `O=C(O)CCCC(=O)N1CCc2cc(S(=O)(=O)N3CCc4ccccc43)ccc21`, the IC50 was > 100 µM (inactive) (AlphaScreen, mean of runs); above 100 µM under setting [1]; > 95 µM (inactive) (FP, mean of runs); above 95 µM under setting [2]; above 95 µM under setting [3].
Consider `CCC1=C(OC(=O)N(CC)CC)N2C(=O)OC(=NCC3CC3)[C@]2(Cc2ccccc2)[C@H]2C1=CC[C@H]1C(=O)N(C)C(=O)[C@H]12`, for which the IC50 by setting is: (AlphaScreen, mean of runs) > 100 µM (inactive); under setting [1], above 100 µM; (FP, mean of runs) > 95 µM (inactive); under setting [2], above 95 µM; under setting [3], above 95 µM.
In the case of `CC(Nc1ccc2ccccc2c1)C(=O)N/N=C/c1ccncc1` (stereo not given), the IC50 runs as follows: (AlphaScreen, mean of runs) > 100 µM (inactive); under setting [1], above 100 µM; (FP, mean of runs) > 95 µM (inactive); under setting [2], above 95 µM; under setting [3], above 95 µM.
Regarding `COC(=O)C1=C(C)NC(C)=C(C(=O)OC)C1C(=O)OC(C)C(=O)c1ccccc1` (stereo not given), the IC50 was > 100 µM (inactive) (AlphaScreen, mean of runs); above 100 µM under setting [1]; > 95 µM (inactive) (FP, mean of runs); above 95 µM under setting [2]; above 95 µM under setting [3].
For `CC(=O)c1cccc(S(=O)(=O)N2CCC(C(=O)O)(c3ccccc3)CC2)c1`, the IC50 (AlphaScreen, mean of runs) is > 100 µM (inactive); the IC50 under setting [1] was above 100 µM; the IC50 (FP, mean of runs) was > 95 µM (inactive); the IC50 under setting [2] was above 95 µM; the IC50 under setting [3] was above 95 µM.
As to `CC1CCC(NC(=O)C2CCC(CNS(=O)(=O)c3cccc4cccnc34)CC2)CC1` (stereo not given), the IC50 by setting is: (AlphaScreen, mean of runs) > 100 µM (inactive); under setting [1], above 100 µM; (FP, mean of runs) > 95 µM (inactive); under setting [2], above 95 µM; under setting [3], above 95 µM.
For the compound `CCOc1ccccc1N1CCN(C(=O)c2ccncc2)CC1`, the IC50 is > 100 µM (inactive) (AlphaScreen, mean of runs); above 100 µM under setting [1]; > 95 µM (inactive) (FP, mean of runs); above 95 µM under setting [2]; above 95 µM under setting [3].
In the case of `CCCN(C(=O)Cn1c(C(F)(F)F)nc2ccccc21)C1CCS(=O)(=O)C1` (stereo not given), the IC50 (AlphaScreen, mean of runs) was 11.2 µM; the concentration for half-maximal inhibition (IC50) under setting [1] stood at 11.2 µM; the IC50 (FP, mean of runs) was > 95 µM (inactive); the IC50 under setting [2] is above 95 µM; the IC50 under setting [3] was above 95 µM.
Take `COc1ccc(C(=O)COC(=O)C(CCSC)NS(=O)(=O)c2ccc(Cl)cc2)cc1` (stereo not given): the IC50 runs as follows: (AlphaScreen, mean of runs) > 100 µM (inactive); under setting [1], above 100 µM; (FP, mean of runs) > 95 µM (inactive); under setting [2], above 95 µM; under setting [3], above 95 µM.
In the case of `CCCCc1ccc(S(=O)(=O)N2CCC3(CC2)OCCO3)cc1`, the IC50 by setting is: (AlphaScreen, mean of runs) > 100 µM (inactive); under setting [1], above 100 µM; (FP, mean of runs) > 95 µM (inactive); under setting [2], above 95 µM; under setting [3], above 95 µM.
Turning to `Cc1cc(C)n2c(SCC(=O)Nc3cccc(S(N)(=O)=O)c3)nnc2n1`, the IC50 (AlphaScreen, mean of runs) was > 100 µM (inactive); the IC50 under setting [1] was above 100 µM; the IC50 (FP, mean of runs) was > 95 µM (inactive); the IC50 under setting [2] was above 95 µM; the IC50 under setting [3] was above 95 µM.
